Molecules are shown by their SMILES.

For test [1], the system named is Cytomegalovirus. Put plainly: Inhibitory activity against cytomegalo virus was determined. The test is classed as functional, organism-based. Particulars: Human betaherpesvirus 5.
Test [2] has as its system Human alphaherpesvirus 2. Briefly: Inhibitory activity against herpes simplex virus was determined. Type of test: functional, organism-based.
The nature of test [3]: Inhibitory activity against MTS host cell toxicity was determined. The test is classed as functional.
In test [4] the test system is Respiratory syncytial virus. Briefly: Inhibitory activity against respiratory syncytial virus was determined. The test is classed as functional, organism-based. The following applies: human respiratory syncytial virus.
Test [5] relates to Human alphaherpesvirus 3. Briefly: Inhibitory activity against varicella zoster virus was determined. The test is classed as functional, organism-based.

What is called IC50 is the point on the concentration scale where inhibition reaches its midpoint. For `CC(C)(/N=C(\S)Nc1ccc(NC(=O)c2csnn2)cc1)c1cc(C(F)(F)F)cc(C(F)(F)F)c1`, the IC50 in test [1] was 0.004 µM; in test [2], greater than 5 µM; in test [3] it was greater than 7.5 µM; in test [4], greater than 5 µM; in test [5], greater than 3.7 µM.

For the molecule `C[C@@H](/N=C(\S)Nc1ccc(NC(=O)c2cscn2)cc1)c1cc(C(F)(F)F)cc(C(F)(F)F)c1`, the IC50 is 0.0015 µM in test [1]; greater than 5 µM in test [2]; greater than 7.5 µM in test [3]; 2 µM in test [4]; greater than 3.7 µM in test [5].

As for `O=C(Nc1ccc(N/C(S)=N/C(c2ccccc2)c2cc(C(F)(F)F)cc(C(F)(F)F)c2)cc1)c1csnn1` (configuration not stated), the half-inhibitory concentration (IC50) is 0.002 µM in test [1]; greater than 5 µM in test [2]; greater than 7.5 µM in test [3]; greater than 5 µM in test [4]; greater than 3.7 µM in test [5].

As for `CCC(/N=C(\S)Nc1ccc(NC(=O)c2cscn2)cc1)c1cc(C(F)(F)F)cc(C(F)(F)F)c1` (configuration not stated), the IC50 was 0.0002 µM in test [1]; 4.1 µM in test [2]; greater than 7.5 µM in test [3]; greater than 5 µM in test [4]; greater than 3.7 µM in test [5].

Consider `O=C(Nc1ccc(N/C(S)=N/Cc2cc(C(F)(F)F)cc(C(F)(F)F)c2)cc1)c1csnn1`, for which the IC50 in test [1] is 0.002 µM; in test [2], greater than 5 µM; in test [4], greater than 5 µM; in test [5] it was greater than 5 µM.

For `C[C@H](/N=C(\S)Nc1ccc(NC(=O)c2cscn2)cc1)c1cc(C(F)(F)F)cc(C(F)(F)F)c1`, the IC50 is 0.0006 µM in test [1]; greater than 5 µM in test [2]; greater than 7.5 µM in test [3]; greater than 5 µM in test [4]; greater than 3.7 µM in test [5].

`O=C(Nc1ccc(N/C(S)=N/Cc2cc(C(F)(F)F)cc(C(F)(F)F)c2)cn1)c1csnn1`: the IC50 in test [1] was 0.0044 µM; in test [2] it was greater than 5 µM; in test [3], greater than 7.5 µM; in test [4], greater than 5 µM; in test [5], greater than 3.7 µM.

`O=C(Nc1ccc(/N=C(\S)Nc2cc(C(F)(F)F)cc(C(F)(F)F)c2)cc1)c1cscn1`: the IC50 was 0.016 µM in test [1], greater than 5 µM in test [2], greater than 5 µM in test [4] and greater than 5 µM in test [5].

As to `C[C@H](/N=C(\S)Nc1ccc(NC(=O)c2csnn2)nc1)c1cc(C(F)(F)F)cc(C(F)(F)F)c1`, the IC50 in test [1] was 0.003 µM; in test [2], 4.1 µM; in test [3], 8 µM; in test [4] it was greater than 5 µM; in test [5], greater than 3.7 µM.

Consider `CCC(/N=C(\S)Nc1ccc(NC(=O)c2csnn2)cc1)c1cc(C(F)(F)F)cc(C(F)(F)F)c1` (configuration not stated), for which the 50% inhibitory concentration (IC50) was 0.001 µM in test [1]; 5 µM in test [2]; greater than 7.5 µM in test [3]; greater than 5 µM in test [4]; greater than 3.7 µM in test [5].

For `CCCC(/N=C(\S)Nc1ccc(NC(=O)c2csnn2)cc1)c1cc(C(F)(F)F)cc(C(F)(F)F)c1` (configuration not stated), the IC50 in test [1] is 0.001 µM; in test [2] it was greater than 5 µM; in test [3], greater than 7.5 µM; in test [4], greater than 5 µM; in test [5], greater than 3.7 µM.

Turning to `CC(/N=C(\S)Nc1ccc(NC(=O)c2csnn2)cc1)c1cc(C(F)(F)F)cc(C(F)(F)F)c1` (configuration not stated), the IC50 is 0.003 µM in test [1]; greater than 5 µM in test [2]; greater than 7.5 µM in test [3]; greater than 5 µM in test [4]; greater than 3.7 µM in test [5].

Consider `O=C(Nc1ccc(/N=C(\S)Nc2cc(C(F)(F)F)cc(C(F)(F)F)c2)cc1)c1csnn1`, for which the IC50 in test [1] was 0.037 µM; in test [2], greater than 5 µM; in test [4], 5 µM; in test [5] it was greater than 5 µM.

As to `C[C@@H](/N=C(\S)Nc1ccc(NC(=O)c2cscn2)nc1)c1cc(C(F)(F)F)cc(C(F)(F)F)c1`, the IC50 in test [1] is 0.0028 µM; in test [2], greater than 5 µM; in test [3], greater than 7.5 µM; in test [4] it was 1 µM; in test [5] it was greater than 3.7 µM.

Turning to `C[C@H](/N=C(\S)Nc1ccc(NC(=O)c2cscn2)nc1)c1cc(C(F)(F)F)cc(C(F)(F)F)c1`, the IC50 in test [1] is 0.002 µM; in test [2] it was greater than 5 µM; in test [3], greater than 7.5 µM; in test [4], greater than 5 µM; in test [5], greater than 3.7 µM.

Regarding `C[C@H](/N=C(\S)Nc1ccc(NC(=O)c2csnn2)cc1)c1cc(C(F)(F)F)cc(C(F)(F)F)c1`, the IC50 in test [1] was 0.003 µM; in test [2], greater than 5 µM; in test [3], greater than 7.5 µM; in test [4] it was greater than 5 µM; in test [5], greater than 3.7 µM.

The values are drawn from ChEMBL document CHEMBL1147457, “Thiourea inhibitors of herpes viruses. Part 2: N-Benzyl-N'-arylthiourea inhibitors of CMV” (Bioorg Med Chem Lett, 2004).
